Biological target: T1, human serum albumin (HSA) (Homo sapiens, UniProt P02768)
T1 construct: gene ALB
Assay: intrinsic tryptophan fluorescence quenching titration (water, […] °C; also pH […] phosphate buffer), supported by delayed TMZ hydrolysis
Format: binding

T1 sequence (P02768 25-609): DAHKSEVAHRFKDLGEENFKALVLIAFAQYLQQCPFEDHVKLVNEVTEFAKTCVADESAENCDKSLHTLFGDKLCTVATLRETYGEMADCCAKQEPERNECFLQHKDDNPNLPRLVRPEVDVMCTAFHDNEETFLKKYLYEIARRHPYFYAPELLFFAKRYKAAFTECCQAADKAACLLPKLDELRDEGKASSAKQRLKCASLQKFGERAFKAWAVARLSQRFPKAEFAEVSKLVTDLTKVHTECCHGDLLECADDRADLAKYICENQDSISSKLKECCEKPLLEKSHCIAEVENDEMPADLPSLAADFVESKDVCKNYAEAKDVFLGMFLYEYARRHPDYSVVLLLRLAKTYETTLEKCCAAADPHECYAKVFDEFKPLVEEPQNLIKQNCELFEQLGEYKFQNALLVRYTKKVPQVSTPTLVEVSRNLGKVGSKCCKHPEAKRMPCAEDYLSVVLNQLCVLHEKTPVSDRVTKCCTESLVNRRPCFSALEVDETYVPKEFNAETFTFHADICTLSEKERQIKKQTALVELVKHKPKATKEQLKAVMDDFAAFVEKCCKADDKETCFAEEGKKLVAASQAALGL

With `Cn1nnc2c(C(N)=O)ncn2c1=O` [TMZ, Temozolomide] the Kd was roughly 200 µM.
